For this assay, the system named is panel of experts in the sensory evaluation of foods and beverages. The assay can be described thus: Sensory evaluation of sweetness linger and taste characteristics by expert panel. Also noted: key: 0=no sweetness linger; 1=very slight sweetness linger; 2=slight sweetness linger; 3=moderate sweetness linger; 4=moderately high sweetness linger; 5=high sweetness linger. In kind it is in vivo.

On to rebaudioside A, for which the sweetness linger by setting is: (Example Set G: 400 ppm REBA in citric acid/potassium citrate composition equivalent to diet lemon-lime beverage (sugar control 8 g in 100 ml citrate buffer), scale 0-5, sweetness 3-4 min after water rinse) 5; (Example Set H: REBA (500 ppm; H41 360 ppm) in carbon-treated water, phosphoric acid (75%) to pH 2.4-2.5 (sugar control 10 g in 100 ml), scale 0-5) 5.
